Data published in ChEMBL document CHEMBL4680216, “Comparative analysis of the dual EGFR-DNA targeting and growth inhibitory properties of 6-mono-alkylamino- and 6,6-dialkylaminoquinazoline-based type II combi-molecules” (Eur J Med Chem, 2020).
Calls of active or inactive are those of the source. The calls are words filed in the database; no cut-off is given here.

Key:
NCI-H1975 [1] = test: Growth inhibition of human NCI-H1975 cells incubated for 5 days by SRB assay; assay type: functional, cell-based; conditions: NCI-H1975, 120 h
[2] = target: T1, Epidermal growth factor receptor (Homo sapiens, UniProt P00533); test: Inhibition of EGFR phosphorylation in human NCI-H1975 cells at 1 to 10 uM preincubated for 2 hrs followed by EGF stimulation and measured after 30 mins by Western blot analysis; assay type: cell-based; conditions: dose 1-10 µM, time 2.5 hrs
T1 sequence (P00533 whole entry): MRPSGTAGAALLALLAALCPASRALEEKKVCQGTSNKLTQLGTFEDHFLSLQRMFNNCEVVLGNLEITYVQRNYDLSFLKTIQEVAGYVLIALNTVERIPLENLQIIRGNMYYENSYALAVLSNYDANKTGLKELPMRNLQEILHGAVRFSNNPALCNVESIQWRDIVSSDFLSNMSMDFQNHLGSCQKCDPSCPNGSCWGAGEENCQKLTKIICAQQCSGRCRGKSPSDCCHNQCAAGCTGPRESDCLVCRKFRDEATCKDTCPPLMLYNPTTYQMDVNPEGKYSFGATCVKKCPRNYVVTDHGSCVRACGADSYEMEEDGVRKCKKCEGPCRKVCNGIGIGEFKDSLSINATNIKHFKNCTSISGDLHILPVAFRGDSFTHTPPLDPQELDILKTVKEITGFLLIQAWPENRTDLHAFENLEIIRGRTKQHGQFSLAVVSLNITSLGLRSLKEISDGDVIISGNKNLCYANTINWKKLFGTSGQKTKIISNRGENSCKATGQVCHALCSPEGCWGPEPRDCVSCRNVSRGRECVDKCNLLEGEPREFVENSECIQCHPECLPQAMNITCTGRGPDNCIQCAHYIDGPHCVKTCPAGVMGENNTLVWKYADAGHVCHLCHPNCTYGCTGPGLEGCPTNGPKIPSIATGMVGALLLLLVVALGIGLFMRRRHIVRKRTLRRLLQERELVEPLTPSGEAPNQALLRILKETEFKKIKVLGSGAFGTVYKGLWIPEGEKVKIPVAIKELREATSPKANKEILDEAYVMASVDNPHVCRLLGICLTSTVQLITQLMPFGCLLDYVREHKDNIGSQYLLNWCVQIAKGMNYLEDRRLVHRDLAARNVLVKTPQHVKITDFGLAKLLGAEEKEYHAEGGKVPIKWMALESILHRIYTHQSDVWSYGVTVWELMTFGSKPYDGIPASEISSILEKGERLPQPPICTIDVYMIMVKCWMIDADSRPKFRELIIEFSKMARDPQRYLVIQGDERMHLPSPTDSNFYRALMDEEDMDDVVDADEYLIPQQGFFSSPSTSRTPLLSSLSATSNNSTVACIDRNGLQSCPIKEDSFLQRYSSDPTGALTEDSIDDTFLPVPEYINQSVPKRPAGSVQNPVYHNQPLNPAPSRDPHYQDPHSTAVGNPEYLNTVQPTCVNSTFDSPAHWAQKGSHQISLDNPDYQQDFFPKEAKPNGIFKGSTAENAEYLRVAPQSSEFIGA

A549 [3] = test: Growth inhibition of human A549 cells incubated for 5 days by SRB assay; assay type: functional, cell-based; conditions: A549, 120 h
A549 [4] = test: Induction of DNA damage in human A549 cells at 0.1 to 10 uM after 2 hrs by comet assay; assay type: functional, cell-based; conditions: dose 0.1-10 µM
[5] = target: T1, Epidermal growth factor receptor; test: Inhibition of EGFR phosphorylation in human A549 cells at 1 to 10 uM preincubated for 2 hrs followed by EGF stimulation and measured after 30 mins by Western blot analysis; assay type: cell-based; conditions: dose 1-10 µM, time 2.5 hrs
PC-9 = test: Growth inhibition of human PC-9 cells incubated for 5 days by SRB assay; assay type: functional, cell-based; conditions: PC-9, 120 h
[6] = target: T1, Epidermal growth factor receptor; test: Inhibition of EGFR phosphorylation in human PC-9 cells at 1 to 10 uM preincubated for 2 hrs followed by EGF stimulation and measured after 30 mins by Western blot analysis; assay type: cell-based; conditions: dose 1-10 µM, time 2.5 hrs
[7] = target: T1, Epidermal growth factor receptor; test: Inhibition of EGFR phosphorylation in human PC-9 cells assessed as downregulation AKT pathway at 1 to 10 uM preincubated for 2 hrs followed by EGF stimulation and measured after 30 mins by Western blot analysis; assay type: cell-based; conditions: dose 1-10 µM, time 2.5 hrs
A549 [8] = test: Potency index, ratio of gefitinib IC50 to test compound IC50 for growth inhibition of human A549 cells; assay type: functional
[9] = target: T1, Epidermal growth factor receptor; test: Inhibition of EGFR phosphorylation in human A549 cells assessed as downregulation MAPK pathway at 1 to 10 uM preincubated for 2 hrs followed by EGF stimulation and measured after 30 mins by Western blot analysis; assay type: cell-based; conditions: dose 1-10 µM, time 2.5 hrs
[10] = target: T1, Epidermal growth factor receptor; test: Inhibition of EGFR phosphorylation in human A549 cells assessed as downregulation AKT pathway at 1 to 10 uM preincubated for 2 hrs followed by EGF stimulation and measured after 30 mins by Western blot analysis; assay type: cell-based; conditions: dose 1-10 µM, time 2.5 hrs
NCI-H1975 [11] = test: Potency index, ratio of gefitinib IC50 in presence of chlorambucil to test compound IC50 for growth inhibition of human NCI-H1975 cells; assay type: functional
Calf thymus DNA [12] = test: Binding affinity to calf thymus DNA assessed as compound hydrolysis at 10 mM after 5 days by LC-MS/MS analysis; assay type: nucleic-acid assay; conditions: Bos taurus, time 5.0 day
[13] = target: T1, Epidermal growth factor receptor; test: Inhibition of EGFR (unknown origin) using poly (Glu,Tyr) 4:1 as substrate incubated for 8 mins in presence of ATP by colorimetric analysis
[14] = target: T1, Epidermal growth factor receptor; test: Inhibition of EGFR phosphorylation in human PC-9 cells assessed as downregulation MAPK pathway at 1 to 10 uM preincubated for 2 hrs followed by EGF stimulation and measured after 30 mins by Western blot analysis; assay type: cell-based; conditions: dose 1-10 µM, time 2.5 hrs
Calf thymus DNA [15] = test: Binding affinity to calf thymus DNA assessed as adenine alkylated adduct formation at 10 mM after 5 days by LC-MS/MS analysis; assay type: nucleic-acid assay; conditions: Bos taurus, time 5.0 day
A549 [16] = test: Potency index, ratio of gefitinib IC50 in presence of chlorambucil to test compound IC50 for growth inhibition of human A549 cells; assay type: functional
Calf thymus DNA [17] = test: Binding affinity to calf thymus DNA assessed as guanine alkylated adduct formation at 10 mM after 5 days by LC-MS/MS analysis; assay type: nucleic-acid assay; conditions: Bos taurus, time 5.0 day
[18] = Toxicity in po dosed CD-1 mouse assessed as maximum tolerated dose; assay type: organism-based; conditions: in vivo
[19] = target: T1, Epidermal growth factor receptor; test: Irreversible inhibition of EGFR in human A549 cells at 2 uM preincubated for 2 hrs followed by compound wash out with serum free media followed by EGF stimulation and measured after 30 mins by Western blot analysis; assay type: cell-based; conditions: time 2.5 hrs
NCI-H1975 [20] = test: Potency index, ratio of gefitinib IC50 to test compound IC50 for growth inhibition of human NCI-H1975 cells; assay type: functional
[21] = target: T1, Epidermal growth factor receptor; test: Inhibition of EGFR phosphorylation in human NCI-H1975 cells assessed as downregulation MAPK pathway at 1 to 10 uM preincubated for 2 hrs followed by EGF stimulation and measured after 30 mins by Western blot analysis; assay type: cell-based; conditions: dose 1-10 µM, time 2.5 hrs
[22] = target: T1, Epidermal growth factor receptor; test: Inhibition of EGFR phosphorylation in human NCI-H1975 cells assessed as downregulation AKT pathway at 1 to 10 uM preincubated for 2 hrs followed by EGF stimulation and measured after 30 mins by Western blot analysis; assay type: cell-based; conditions: dose 1-10 µM, time 2.5 hrs

**Q.** Which IC50 (NCI-H1975 [1]) does the source give for `O=C(O)CCCc1ccc(N(CCCl)CCCl)cc1` [CHLORAMBUCIL] here?
**A.** The IC50 was 28.2 µM.

**Q.** What about the inhibition [2] of the same compound?
**A.** Its inhibition is “inactive”.

**Q.** What about the IC50 (A549 [3]) of the same compound?
**A.** Its IC50 is 24.5 µM.

**Q.** And the Activity (A549 [4])?
**A.** Its Activity is “inactive”.

**Q.** And the inhibition [5]?
**A.** The inhibition was “inactive”.

**Q.** What about the IC50 (PC-9) of the same compound?
**A.** Its IC50 is 7.17 µM.

**Q.** And the inhibition [6]?
**A.** The inhibition was “inactive”.

**Q.** With `CN(CCO)c1ccc2ncnc(Nc3cccc(Br)c3)c2c1` as the compound, how does the IC50 (NCI-H1975 [1]) read?
**A.** The IC50 was 11.3 µM.

**Q.** What about the IC50 (A549 [3]) of the same compound?
**A.** Its IC50 is 34.5 µM.

**Q.** What about the IC50 (PC-9) of the same compound?
**A.** The IC50 was 0.103 µM.

**Q.** Which IC50 (NCI-H1975 [1]) does the source give for `CC(=O)OCCN(C)c1ccc2ncnc(Nc3cccc(Br)c3)c2c1` here?
**A.** The IC50 was 9.4 µM.

**Q.** What about the IC50 (A549 [3]) of the same compound?
**A.** The IC50 was 30.5 µM.

**Q.** What about the IC50 (PC-9) of the same compound?
**A.** The IC50 was 0.098 µM.

**Q.** For `CN(CCCl)c1ccc2ncnc(Nc3cccc(Br)c3)c2c1`, which inhibition [7] is on record?
**A.** Its inhibition is “Active”.

**Q.** What about the “Ratio IC50” value (A549 [8]) of the same compound?
**A.** The value was 2.

**Q.** And the IC50 (NCI-H1975 [1])?
**A.** The IC50 was 2.81 µM.

**Q.** What about the inhibition [9] of the same compound?
**A.** The inhibition was “Active”.

**Q.** What about the inhibition [10] of the same compound?
**A.** The inhibition was “Active”.

**Q.** What about the “Ratio IC50” value (NCI-H1975 [11]) of the same compound?
**A.** The value was 2.

**Q.** What about the IC50 (A549 [3]) of the same compound?
**A.** The IC50 was 3.16 µM.

**Q.** What about the Activity (Calf thymus DNA [12]) of the same compound?
**A.** The Activity was “Active”.

**Q.** And the IC50 [13]?
**A.** The IC50 was 0.504 µM.

**Q.** What about the inhibition [14] of the same compound?
**A.** Its inhibition is “Active”.

**Q.** What about the Activity (Calf thymus DNA [15]) of the same compound?
**A.** The Activity was “Active”.

**Q.** What about the “Ratio IC50” value (A549 [16]) of the same compound?
**A.** The value was 2.

**Q.** What about the Activity (Calf thymus DNA [17]) of the same compound?
**A.** The Activity was “Active”.

**Q.** And the MTD [18]?
**A.** Its MTD is 150 mg/kg.

**Q.** And the Activity (A549 [4])?
**A.** The Activity was “Active”.

**Q.** And the inhibition [5]?
**A.** The inhibition was “Active”.

**Q.** What about the inhibition [19] of the same compound?
**A.** The inhibition was “inactive”.

**Q.** And the “Ratio IC50” value (NCI-H1975 [20])?
**A.** Its value is 2.

**Q.** What about the IC50 (PC-9) of the same compound?
**A.** The IC50 was 0.21 µM.

**Q.** And the inhibition [6]?
**A.** The inhibition was “Active”.

**Q.** Which results are given for `CC(=O)OCCN(CCO)c1ccc2ncnc(Nc3cccc(Br)c3)c2c1`?
**A.** IC50 (NCI-H1975 [1]): 16 µM; IC50 (A549 [3]): 48 µM; IC50 (PC-9): 0.086 µM

**Q.** Which results are given for `OCCN(CCO)c1ccc2ncnc(Nc3cccc(Br)c3)c2c1`?
**A.** IC50 (NCI-H1975 [1]): 18.1 µM; IC50 (A549 [3]): 46.6 µM; IC50 (PC-9): 0.07 µM

**Q.** With `ClCCN(CCCl)c1ccc2ncnc(Nc3cccc(Br)c3)c2c1` as the compound, how does the inhibition [7] read?
**A.** The inhibition was “Active”.

**Q.** What about the IC50 (NCI-H1975 [1]) of the same compound?
**A.** The IC50 was 6.07 µM.

**Q.** And the inhibition [9]?
**A.** Its inhibition is “Active”.

**Q.** What about the inhibition [10] of the same compound?
**A.** Its inhibition is “Active”.

**Q.** What about the inhibition [21] of the same compound?
**A.** Its inhibition is “Active”.

**Q.** What about the inhibition [2] of the same compound?
**A.** Its inhibition is “Active”.

**Q.** And the IC50 (A549 [3])?
**A.** The IC50 was 6.51 µM.

**Q.** And the Activity (Calf thymus DNA [12])?
**A.** Its Activity is “Active”.

**Q.** What about the IC50 [13] of the same compound?
**A.** The IC50 was 1.26 µM.

**Q.** What about the inhibition [14] of the same compound?
**A.** Its inhibition is “Active”.

**Q.** And the Activity (Calf thymus DNA [15])?
**A.** The Activity was “Active”.

**Q.** What about the Activity (Calf thymus DNA [17]) of the same compound?
**A.** Its Activity is “Active”.

**Q.** And the MTD [18]?
**A.** Its MTD is 150 mg/kg.

**Q.** What about the Activity (A549 [4]) of the same compound?
**A.** Its Activity is “Active”.

**Q.** And the inhibition [5]?
**A.** Its inhibition is “Active”.

**Q.** What about the inhibition [19] of the same compound?
**A.** Its inhibition is “Active”.

**Q.** What about the inhibition [22] of the same compound?
**A.** The inhibition was “Active”.

**Q.** And the IC50 (PC-9)?
**A.** Its IC50 is 0.203 µM.

**Q.** And the inhibition [6]?
**A.** Its inhibition is “Active”.

**Q.** With `ClCCNc1ccc2ncnc(Nc3cccc(Br)c3)c2c1` as the compound, how does the inhibition [7] read?
**A.** The inhibition was “Active”.

**Q.** What about the IC50 (NCI-H1975 [1]) of the same compound?
**A.** The IC50 was 0.48 µM.

**Q.** What about the inhibition [9] of the same compound?
**A.** Its inhibition is “Active”.

**Q.** What about the inhibition [10] of the same compound?
**A.** Its inhibition is “Active”.

**Q.** What about the IC50 (A549 [3]) of the same compound?
**A.** The IC50 was 2.06 µM.

**Q.** What about the Activity (Calf thymus DNA [12]) of the same compound?
**A.** Its Activity is “Active”.

**Q.** And the inhibition [14]?
**A.** The inhibition was “Active”.

**Q.** What about the Activity (Calf thymus DNA [15]) of the same compound?
**A.** The Activity was “Active”.

**Q.** What about the Activity (Calf thymus DNA [17]) of the same compound?
**A.** Its Activity is “Active”.

**Q.** And the MTD [18]?
**A.** Its MTD is 150 mg/kg.

**Q.** What about the Activity (A549 [4]) of the same compound?
**A.** The Activity was “Active”.

**Q.** And the inhibition [5]?
**A.** The inhibition was “Active”.

**Q.** And the inhibition [19]?
**A.** Its inhibition is “Active”.

**Q.** And the IC50 (PC-9)?
**A.** Its IC50 is 0.09 µM.

**Q.** What about the inhibition [6] of the same compound?
**A.** Its inhibition is “Active”.

**Q.** With `CC(=O)OCCN(CCOC(C)=O)c1ccc2ncnc(Nc3cccc(Br)c3)c2c1` as the compound, how does the IC50 (NCI-H1975 [1]) read?
**A.** Its IC50 is 20.2 µM.

**Q.** And the IC50 (A549 [3])?
**A.** The IC50 was 52.6 µM.

**Q.** What about the IC50 (PC-9) of the same compound?
**A.** Its IC50 is 0.13 µM.

**Q.** Which Activity (A549 [4]) does the source give for `COc1cc2ncnc(Nc3ccc(F)c(Cl)c3)c2cc1OCCCN1CCOCC1` here?
**A.** The Activity was “inactive”.
